# Test results as given in patent publication US9765065B2, “Therapeutic substituted cyclopentanes” (ALLERGAN, INC., priority 2007, dated 2017).
# pEC50, pKi: −log10 of the molar value.
# Assays:
# [1] = biological target: T1, EP2 (Homo sapiens, UniProt P43116); test: EP2 flipr; assay type: cell-based
# Text: (§1) U.S. patent application Ser. No. 11/553,143, filed on Oct. 26, 2006, incorporated by reference herein in its entirety, describes the methods used to obtain the in vitro data in the table below.
# [2] = biological target: T1, EP2; test: EP2 cAMP; assay type: cell-based
# Text: as §1
# [3] = biological target: T1, EP2; test: EP2 binding Ki
# Text: as §1
# [4] = biological target: T2, EP4 (Homo sapiens, UniProt P35408); test: EP4 flipr; assay type: cell-based
# T2 sequence (P35408 whole entry): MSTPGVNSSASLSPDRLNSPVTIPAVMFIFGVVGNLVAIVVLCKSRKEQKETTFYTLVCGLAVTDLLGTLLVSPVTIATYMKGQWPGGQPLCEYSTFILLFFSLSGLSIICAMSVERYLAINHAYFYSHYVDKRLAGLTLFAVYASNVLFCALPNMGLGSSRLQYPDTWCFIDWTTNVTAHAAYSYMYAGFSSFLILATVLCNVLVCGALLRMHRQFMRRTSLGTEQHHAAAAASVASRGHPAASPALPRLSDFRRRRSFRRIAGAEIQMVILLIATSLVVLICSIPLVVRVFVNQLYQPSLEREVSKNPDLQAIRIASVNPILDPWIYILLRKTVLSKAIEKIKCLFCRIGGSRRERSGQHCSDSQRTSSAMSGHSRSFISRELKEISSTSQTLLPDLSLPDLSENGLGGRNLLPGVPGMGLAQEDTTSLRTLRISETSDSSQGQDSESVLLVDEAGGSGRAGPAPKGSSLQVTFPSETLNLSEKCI
# Text: as §1
# [5] = biological target: T2, EP4; test: EP4 binding Ki
# Text: as §1
# [6] = biological target: T3, hEP3A (Homo sapiens, UniProt P43115); test: Other receptors hEP3A; assay type: cell-based
# T3 sequence (P43115 1-390): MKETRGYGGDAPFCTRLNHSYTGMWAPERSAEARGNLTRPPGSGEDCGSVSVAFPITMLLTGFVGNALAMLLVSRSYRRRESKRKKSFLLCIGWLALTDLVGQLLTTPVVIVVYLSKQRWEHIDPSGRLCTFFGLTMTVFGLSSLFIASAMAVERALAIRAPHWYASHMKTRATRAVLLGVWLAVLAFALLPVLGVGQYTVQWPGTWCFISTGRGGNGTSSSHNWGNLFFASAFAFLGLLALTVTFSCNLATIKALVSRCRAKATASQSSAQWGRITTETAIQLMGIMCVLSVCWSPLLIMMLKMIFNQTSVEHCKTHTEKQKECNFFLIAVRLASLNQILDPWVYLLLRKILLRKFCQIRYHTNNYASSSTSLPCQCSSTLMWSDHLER
# Text: as §1
# [7] = biological target: T4, hTP (Homo sapiens, UniProt P21731); test: Other receptors hTP; assay type: cell-based
# T4 sequence (P21731 1-343): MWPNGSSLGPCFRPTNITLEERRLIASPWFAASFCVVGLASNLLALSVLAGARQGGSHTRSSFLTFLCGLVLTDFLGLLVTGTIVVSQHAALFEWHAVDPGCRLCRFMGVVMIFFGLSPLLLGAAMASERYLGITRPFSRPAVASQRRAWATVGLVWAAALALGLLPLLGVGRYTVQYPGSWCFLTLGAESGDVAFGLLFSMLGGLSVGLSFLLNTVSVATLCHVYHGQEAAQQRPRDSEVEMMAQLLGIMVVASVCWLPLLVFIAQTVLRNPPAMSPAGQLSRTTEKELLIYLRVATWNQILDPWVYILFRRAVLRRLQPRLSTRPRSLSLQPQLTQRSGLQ
# Text: as §1
# [8] = biological target: T5, hDP (Homo sapiens, UniProt Q13258); test: Other receptors hDP; assay type: cell-based
# T5 sequence (Q13258 1-359): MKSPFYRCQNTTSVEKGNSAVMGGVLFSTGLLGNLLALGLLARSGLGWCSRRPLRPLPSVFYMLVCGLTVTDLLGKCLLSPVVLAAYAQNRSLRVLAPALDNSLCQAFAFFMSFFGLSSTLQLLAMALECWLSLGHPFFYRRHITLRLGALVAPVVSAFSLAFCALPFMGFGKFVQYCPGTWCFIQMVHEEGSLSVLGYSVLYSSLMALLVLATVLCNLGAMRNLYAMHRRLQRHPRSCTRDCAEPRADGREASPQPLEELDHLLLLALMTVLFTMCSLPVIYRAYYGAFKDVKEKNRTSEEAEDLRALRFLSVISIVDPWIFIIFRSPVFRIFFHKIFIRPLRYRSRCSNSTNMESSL
# Text: as §1
# T1 sequence (P43116 whole entry): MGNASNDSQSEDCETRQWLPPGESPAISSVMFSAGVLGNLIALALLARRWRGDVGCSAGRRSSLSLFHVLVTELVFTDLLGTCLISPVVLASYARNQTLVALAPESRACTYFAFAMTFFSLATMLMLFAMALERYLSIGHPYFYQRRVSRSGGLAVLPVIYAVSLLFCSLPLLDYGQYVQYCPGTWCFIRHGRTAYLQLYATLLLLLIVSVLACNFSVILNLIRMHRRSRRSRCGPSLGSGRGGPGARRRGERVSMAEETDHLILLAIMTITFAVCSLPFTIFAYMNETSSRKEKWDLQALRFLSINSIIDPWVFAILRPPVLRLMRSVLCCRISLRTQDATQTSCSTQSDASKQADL
SMILES,pEC50 [1],pEC50 [2],pKi [3],pEC50 [4],pKi [5],EC50 [6],EC50 [7],EC50 [8]
"O=C(O)c1ccc(C=CC[C@@H]2[C@@H](C=Cc3cc(Cl)cc(Cl)c3)[C@H](O)C[C@H]2Cl)s1 [Example 1, 5-(3-((1R,2R,3R,5R)-5-chloro-2-(3,5-dichlorostyryl)-3-hydroxycyclopentyl)prop-1-enyl)thiophene-2-carboxylic acid]",7.43,9.70,8.66,< 5.00,6.36,> 10000 nM,> 10000 nM,
"O=C(O)c1ccc(CCC[C@@H]2[C@@H](/C=C/c3cc(Cl)cc(CO)c3)[C@H](O)C[C@H]2Cl)s1 [Example 2, 5-(3-((1R,2R,3R,5R)-5-chloro-2-(3-chloro-5-(hydroxymethyl)styryl)-3-hydroxycyclopentyl)propyl)-thiophene-2-carboxylic acid]",7.07,9.89,8.70,< 5.00,6.87,,,> 10000 nM
"O=C(O)c1ccc(CCC[C@@H]2[C@@H](/C=C\c3cc(Cl)nc(Cl)c3)[C@H](O)C[C@H]2Cl)s1 [Example 5, 5-(3-((1R,2R,3R,5R)-5-chloro-2-((Z)-2-(2,6-dichloropyridin-4-yl)vinyl)-3-hydroxycyclopentyl)propyl)-thiophene-2-carboxylic acid]",6.34,8.52,7.42,5.72,5.70,,,2100 nM
"O=C(O)c1ccc(CCC[C@@H]2[C@@H](/C=C/c3cc(F)cc(F)c3)[C@H](O)C[C@H]2Cl)s1 [Example 6, 5-(3-((1R,2R,3R,5R)-5-chloro-2-((E)-3,5-difluorostyryl)-3-hydroxycyclopentyl)propyl)thiophene-2-carboxylic acid]",7.66,9.52,8.15,< 5.00,6.06,,65300 nM,
"O=C(O)c1ccc(CCC[C@@H]2[C@@H](/C=C\c3cc(F)cc(F)c3)[C@H](O)C[C@H]2Cl)s1 [Example 7, 5-(3-((1R,2R,3R,5R)-5-chloro-2-((Z)-3,5-difluorostyryl)-3-hydroxycyclopentyl)propyl)thiophene-2-carboxylic acid]",5.15,6.68,6.37,,5.49,,95 nM,6370 nM
"Cc1cccc(/C=C/[C@@H]2[C@@H](CCCc3ccc(C(=O)O)s3)[C@H](Cl)C[C@H]2O)c1 [Example 12, 5-(3-((1R,2R,3R,5R)-5-chloro-3-hydroxy-2-(3-methylstyryl)cyclopentyl)propyl)thiophene-2-carboxylic acid]",7.77,10.00,8.70,4.77,6.84,9880 nM,3760 nM,12300 nM
"O=C(O)c1ccc(CCC[C@@H]2[C@@H](C#Cc3cccs3)[C@H](O)C[C@H]2Cl)s1 [Example 28, 5-(3-((1R,2S,3R,5R)-5-chloro-3-hydroxy-2-(thiophen-2-ylethynyl)cyclopentyl)propyl)thiophene-2-carboxylic acid]",,9.10,8.00,5.23,6.08,6520 nM,,18300 nM
"O=C(O)c1csc(SCC[C@@H]2[C@@H](C#Cc3cc(Cl)cc(Cl)c3)[C@H](O)C[C@H]2Cl)n1 [Example 34, 2-(2-((1R,2S,3R,5R)-5-chloro-2-((3,5-dichlorophenyl)ethynyl)-3-hydroxycyclopentyl)ethylthio)thiazole-4-carboxylic acid]",,9.80,8.82,8.48,7.22,2880 nM,,14800 nM
"O=C(O)c1csc(SCC[C@@H]2[C@@H](C#Cc3ccccc3)[C@H](O)C[C@H]2Cl)n1 [Example 35, 2-(2-((1R,2S,3R,5R)-5-chloro-3-hydroxy-2-(phenylethynyl)cyclopentyl)ethylthio)thiazole-4-carboxylic acid]",,10.10,8.30,8.00,6.33,1500 nM,,1030 nM
